The subject of experiment [1] is HMLER cells. In words: ICP-MS of total cellular iron and copper. The experiment is classed as cell-based, human. The settings on record: 100 nM, 3 h or 24 h. On the procedure: All cells were grown in an incubator equilibrated at 37° C. with 5% CO2, grown to confluence and split with Trypsin/EDTA (Gibco, TRYPGIB01) once or twice a week according to confluence. HMLER cells ([…]) naturally repressing E-cadherin, obtained from human mammary epithelial cells infected with a retrovirus carrying hTERT, SV40 and the oncogenic allele H-rasV12, and HMLER CD44 and TFRC ko clones were cultured in DMEM/F12 (Thermo Fisher Scientific, 31331093) supplemented with 10% FBS (v/v) (Thermo Fisher Scientific, 10270106), 10 μg/mL insulin (Sigma-Aldrich, 10516), 0.5 μg/mL hydrocortisone (Sigma-Aldrich, H0888) and 0.5 μg/ml puromycin (Life Technologies, A11138-02), unless stated otherwise. […]
Glass vials equipped with Teflon septa were cleaned with nitric acid 65% (w/v) (VWR, Suprapur, 1.00441.0250), washed with ultrapure water (Sigma-Aldrich, 1012620500) and dried. […] Cells were then counted using an automated cell counter (Entek) and transferred in 100 μL 1×PBS to the cleaned glass vials, and samples were lyophilized using a freeze dryer (CHRIST, 22080). […] 56Fe concentrations were measured using an Agilent 7900 ICP-QMS in low-resolution mode. […] Isotopes were measured using a collision-reaction interface with helium gas (5 mL/min) to remove polyatomic interferences. […]

A short description of experiment [2]: Cyclic voltammetry of FeCl3 after addition of compounds (FIG. 10b). It is filed as binding. The settings on record: 1 mM FeCl3 in 0.3 M nBu4NBF4 in MeCN, scan rate 2 V/s. On the procedure:
Cyclic voltammetry experiments were performed with a three-electrode cell under argon. Saturated Calomel Electrode (SCE) was used as reference, a steady Glassy Carbon (GC) electrode of diameter 3 mm was selected as working electrode and a Platinum wire as counter-electrode. All cyclic voltammograms were recorded at RT with a μ-autolab III from Metrohm using Nova software with a scan rate of 2 V/s. MeCN was used as a degassed HPLC grade from Carlo Erba. Water was mQ H2O. Stock solution of FeCl3 (100 mM) and Lip-1, A3, A0 and DFO (20 mM) were prepared with 0.3 M nBu4NBF4 in MeCN. 1 mM FeCl3 in 0.3 M nBu4NBF4 in MeCN (1 mL) was used as working solution for recording and subsequently equivalents of compounds were added, stirred and recorded.

For experiment [3], the system named is HMLER cells. Kind of experiment: Click-chemistry fluorescence microscopy with LysoTracker co-staining, HMLER cells. The experiment is classed as cell-based, human. The settings on record: 1 μM, 3 h, LysoTracker 45 mins, Alexa-488-N3 click. On the procedure:
All cells were grown in an incubator equilibrated at 37° C. with 5% CO2, grown to confluence and split with Trypsin/EDTA (Gibco, TRYPGIB01) once or twice a week according to confluence. HMLER cells ([…]) naturally repressing E-cadherin, obtained from human mammary epithelial cells infected with a retrovirus carrying hTERT, SV40 and the oncogenic allele H-rasV12, and HMLER CD44 and TFRC ko clones were cultured in DMEM/F12 (Thermo Fisher Scientific, 31331093) supplemented with 10% FBS (v/v) (Thermo Fisher Scientific, 10270106), 10 μg/mL insulin (Sigma-Aldrich, 10516), 0.5 μg/mL hydrocortisone (Sigma-Aldrich, H0888) and 0.5 μg/ml puromycin (Life Technologies, A11138-02), unless stated otherwise. PDAC053 T cells were grown in serum-free ductal medium: DMEM/F12 supplemented with 0.61 g/500 mL nicotinamide (Sigma-Aldrich, 3376), 2.50 g/500 mL glucose (Sigma-Aldrich, G6152), 1:200 ITS+ (Corning, 354352), 1:20 Nu-serum IV (Corning, 355104), 100 ng/ml cholera toxin, 1 μM dexamethasone (Sigma-Aldrich, D4902), 50 nM 3,3′,5-triiodo-L-thyronine (Sigma-Aldrich, T6397) and 1× PenStrep. BELA cells were cultured using published procedures (Nat. Comm. doi: 10.1038/ncomms14750).
Fluorescence microscopy of clickable serotonin analog A3: Cells were plated on cover slips 24 h prior to the experiment. […]

The next experiment deals with PDAC cells. In words: Cell apoptosis assay with Annexin V and propidium iodide, RSL3-treated PDAC cells (FIG. 10a). It is filed as cell-based. The settings on record: RSL3 0.1, 0.5, 2, 10 μM, compounds 10 μM, 24 h. On the procedure: Pancreatic Ductal Adenocarcinoma (PDAC) cells were grown at 37° C. and 5% CO2 using medium prepared based on previously described (https://doi.org/10.1053/j.gastro.2004.03.058).
PDAC cells were seeded on 6 well plates at the density of 2×10^5 cells/well. RSL3 (0.1, 0.5, 2, 10 µM) was added along with compounds (10 μM) on the following day and after 24 h, the media was recovered and the cells were typsinated. The cells were harvested, pelleted along with the media recovered, washed with PBS, and 100 μl of 1× annexin binding buffer containing annexin V and PI (according to the manufacturer's protocol Dead Cell Apoptosis Kits with Annexin V for Flow Cytometry (Invitrogen)). Finally, PBS buffer containing 10% FBS and 1 mM of EDTA, was added for flow cytometry.

Here are results for one molecule from US20250325516A1, “SEROTONIN ANALOGUES FOR USE IN TREATING METALLOPTOSIS-ASSOCIATED DISORDERS” (INSTITUT CURIE, priority 2022, published 2025).

Entries after “also recorded” stand apart in the source; their conditions may differ.

As to `C#CCNCCc1c[nH]c2ccc(O)cc12` [Compound A3], in the experiment on HMLER cells [1], the “total intracellular copper (ICP-MS)” value is listed as “increase” and the “total intracellular iron (ICP-MS)” value is “increase”. Further, the “binding / chelation of Fe^3+ (cyclic voltammetry)” value in experiment [2] is “chelates/binds to Fe^3+”. Also, the localization in lysosomes result with HMLER cells [3] is listed as “found to localize in lysosomes; also recorded: accumulate in lysosomes”. For the same molecule, the “protection against RSL3-induced ferroptosis (Annexin/propidium iodide)” value in the experiment with PDAC cells is “protects against RSL3-induced ferroptosis”.
